For test [1], the system named is Ramos. In words: Induction of cell death in Ramos cells after 24 hrs. The following applies: Homo sapiens. It is filed as functional, cell-based.
Test [2] is described as follows: Inhibition of F1F0-ATPase synthesis activity in bovine submitochondrial particles. On the set-up: species or system Bos taurus.
Test [3] has as its system Jurkat. Kind of test: Induction of cell death in Jurkat cells after 24 hrs. It is filed as functional, cell-based. The following applies: Homo sapiens.
A short description of test [4]: Inhibition of F1F0-ATPase hydrolysis activity in bovine submitochondrial particles. On the set-up: species or system Bos taurus.
Test [5] relates to Ramos. In words: Induction of reactive oxygen species response in Ramos cells after 1 hr. The following applies: Homo sapiens. It is filed as functional, cell-based.
Test [6] concerns Jurkat. In words: Induction of reactive oxygen species response in Jurkat cells after 1 hr. In kind it is functional, cell-based. The following applies: Homo sapiens.
Test [7] deals with Jurkat. Kind of test: Induction of reactive oxygen species response in Jurkat cells at 75 uM in presence of Vitamin E after 1 hr. It is filed as functional, Homo sapiens.
Test [8] deals with Jurkat. Kind of test: Induction of reactive oxygen species response in Jurkat cells at 75 uM after 1 hr. It is filed as functional, Homo sapiens.
In test [9] the test system is Jurkat. Kind of test: Induction of cell death in Jurkat cells at 75 uM in presence of Vitamin E after 24 hrs. In kind it is functional, Homo sapiens.
For test [10], the system named is Jurkat. In words: Induction of cell death in Jurkat cells at 75 uM in presence of Mn(III)tetrakis(4-benzoic acid)porphyrin after 24 hrs. It is filed as functional, Homo sapiens.
The subject of test [11] is Jurkat. In words: Induction of cell death in Jurkat cells at 75 uM after 24 hrs. In kind it is functional, Homo sapiens.
The subject of test [12] is Jurkat. In words: Induction of reactive oxygen species response in Jurkat cells at 75 uM in presence of Mn(III)tetrakis(4-benzoic acid)porphyrin after 1 hr. In kind it is functional, Homo sapiens.

The structures appear in SMILES notation.

As to `CN1C(=O)CN=C(c2ccccc2)c2cc(Cl)ccc21` [DIAZEPAM], the 50% effective concentration (EC50) (usually the concentration needed to bring the measured effect to its halfway point) is 250 µM with Ramos [1]; 210 µM in test [2]; 170 µM in the test on Jurkat [3]; above 300 µM in test [4]; 170 µM with Ramos [5]; 200 µM in the test on Jurkat [6].
As for `O=C1CN=C(c2ccccc2Cl)c2cc([N+](=O)[O-])ccc2N1` [CLONAZEPAM], the concentration giving a half-maximal response (EC50) in the test on Ramos [1] is above 300 µM; in test [2], 120 µM; with Jurkat [3], above 300 µM; in [4], 240 µM; in the test with Ramos [5], above 300 µM; in the test with Jurkat [6], above 300 µM.
Regarding `CCC(C)N(C)C(=O)c1cc2ccccc2c(-c2ccccc2Cl)n1` (stereo unspecified) [PK-11195], the 50% effective concentration (EC50) turned out to be 90 µM in the test with Ramos [1]; 33 µM in test [2]; 75 µM in the test with Jurkat [3]; 230 µM in test [4]; 100 µM in the test with Ramos [5]; 56 µM in the test on Jurkat [6]. Moreover, the Activity in the test on Jurkat [7] came to 33.9%; with Jurkat [8], 67.9%; with Jurkat [9], 55.9%; with Jurkat [10], 68.9%; in the test on Jurkat [11] it was 85.5%; with Jurkat [12], 39.7%.
For the compound `CN1C(=O)C(Cc2ccc3ccccc3c2)N=C(c2ccc(O)cc2)c2cc(Cl)ccc21` (stereo unspecified), the concentration for a half-maximal effect (EC50) came out at 6.3 µM with Ramos [1]; 5.5 µM in test [2]; 6 µM in the test with Jurkat [3]; 8.9 µM in [4]; 7.3 µM in the test with Ramos [5]; 10 µM with Jurkat [6].
For the compound `CN1C(=O)CN=C(c2ccc(Cl)cc2)c2cc(Cl)ccc21` [RO-54864], the EC50 in the test on Ramos [1] is 130 µM; in [2], 210 µM; with Jurkat [3] it was above 300 µM; in [4], above 300 µM; in the test on Ramos [5], 180 µM; with Jurkat [6] it was 230 µM.

The values are drawn from ChEMBL document CHEMBL1139113, “Inhibition of the mitochondrial F1F0-ATPase by ligands of the peripheral benzodiazepine receptor” (Bioorg Med Chem Lett, 2007).
